Species: Rattus norvegicus
Assay: Open TG-GATES - Regimen: Single
Type: toxicity, organism-based, Sprague-Dawley
Design: regimen Single, gender Male, age 6 weeks
Settings: in vivo, po, 5 mg/kg, route gavage; for TG / TP / gamma-GTP / A/G / ALP / ALT / AST / BUN / CRE / Ca / Cl / DBIL / GLC / IP / K / LDH / Na / PL / RALB / TBIL / TC: tissue Plasma; for APTT / Bas / Eos / Fbg / Hb / Ht / Lym / MCH / MCHC / MCV / Mono / Neu / PT / Plat / RBC / Ret / WBC: tissue Blood; for KIDNEY_L / KIDNEY_R / KIDNEY_TOTAL: tissue Kidney; for LIVER: tissue Liver

## COc1ccc2c(c1)c(CC(=O)O)c(C)n2C(=O)c1ccc(Cl)cc1 [INDOMETHACIN]
3 h, dose level Low
  TG: 59.6 mg/dL
  TP: 5.4 g/dL
  gamma-GTP: 1 IU/L
6 h, dose level High
  TERMINAL_BW: 202.4 g
  APTT: 16.9 s
  Bas: 0%
  Eos: 0.8%
  Fbg: 205.2 mg/dL
  Hb: 12.7 g/dL
  Ht: 38.6%
  Lym: 69.4%
  MCH: 21.3 pg
  MCHC: 32.8%
  MCV: 64.9 fL
  Mono: 13%
  Neu: 16.8%
  PT: 12.8 s
  Plat: 112.7 x10_4/uL
  RBC: 594.6 x10_4/ul
  Ret: 10.3%
  WBC: 87.2 x10_2/uL
  KIDNEY_L: 0.9 g
  KIDNEY_R: 0.9 g
  KIDNEY_TOTAL: 1.9 g
  LIVER: 9 g
  A/G: 1.9
  ALP: 908.6 IU/L
  ALT: 35.6 IU/L
  AST: 69 IU/L
  BUN: 13.6 mg/dL
  CRE: 0.5 mg/dL
  Ca: 10.2 mg/dL
  Cl: 108.2 meq/L
  DBIL: 0.014 mg/dL
  GLC: 194.8 mg/dL
  IP: 9.4 mg/dL
  K: 5.1 meq/L
  LDH: 186.4 IU/L
  Na: 137.4 meq/L
  PL: 120 mg/dL
  RALB: 3.8 g/dL
  TBIL: 0.3 mg/dL
  TC: 68.4 mg/dL
  TG: 48 mg/dL
  TP: 5.8 g/dL
  gamma-GTP: 1.2 IU/L
6 h, dose level Low
  TERMINAL_BW: 222.1 g
  APTT: 18.4 s
  Eos: 0.4%
  Fbg: 230 mg/dL
  Hb: 13.9 g/dL
  Ht: 38%
  Lym: 79.6%
  MCH: 22.6 pg
  MCHC: 36.4%
  MCV: 62 fL
  Mono: 2.8%
  Neu: 15.4%
  PT: 12.4 s
  Plat: 118.2 x10_4/uL
  RBC: 613.2 x10_4/ul
  Ret: 8%
  WBC: 100.8 x10_2/uL
  KIDNEY_L: 1 g
  KIDNEY_R: 1 g
  LIVER: 9.1 g
  A/G: 1.5
  ALP: 938.4 IU/L
  ALT: 36.2 IU/L
  AST: 75.8 IU/L
  BUN: 12 mg/dL
  CRE: 0.4 mg/dL
  Ca: 10.4 mg/dL
  Cl: 103.2 meq/L
  DBIL: 0.076 mg/dL
  GLC: 197.2 mg/dL
  IP: 9.2 mg/dL
  K: 4 meq/L
  LDH: 231 IU/L
  Na: 140.8 meq/L
  PL: 135.2 mg/dL
  RALB: 3.3 g/dL
  TBIL: 0.1 mg/dL
  TC: 77.4 mg/dL
  TG: 62.8 mg/dL
  TP: 5.4 g/dL
  gamma-GTP: 0.8 IU/L
9 h, dose level High
  TERMINAL_BW: 198.4 g
  APTT: 16.9 s
  Bas: 0%
  Eos: 0.6%
  Fbg: 213.6 mg/dL
  Hb: 13.2 g/dL
  Ht: 39.6%
  Lym: 84.2%
  MCH: 21.6 pg
  MCHC: 33.3%
  MCV: 65 fL
  Mono: 7.8%
  Neu: 7.4%
  PT: 12.6 s
  Plat: 102.6 x10_4/uL
  RBC: 609.4 x10_4/ul
  Ret: 9.6%
  WBC: 107 x10_2/uL
  KIDNEY_L: 0.9 g
  KIDNEY_R: 0.9 g
  KIDNEY_TOTAL: 1.9 g
  LIVER: 8.1 g
  A/G: 2.5
  ALP: 961.6 IU/L
  ALT: 34.6 IU/L
  AST: 66 IU/L
  BUN: 12.6 mg/dL
  CRE: 0.5 mg/dL
  Ca: 10.1 mg/dL
  Cl: 105.6 meq/L
  DBIL: 0.042 mg/dL
  GLC: 183.4 mg/dL
  IP: 9.8 mg/dL
  K: 5.3 meq/L
  LDH: 192.8 IU/L
  Na: 137.2 meq/L
  PL: 117 mg/dL
  RALB: 3.9 g/dL
  TBIL: 0.5 mg/dL
  TC: 65.6 mg/dL
  TG: 34.4 mg/dL
  TP: 5.4 g/dL
9 h, dose level Low
  TERMINAL_BW: 221 g
  APTT: 18.2 s
  Eos: 0.4%
  Fbg: 228.6 mg/dL
  Hb: 13.7 g/dL
  Ht: 37.7%
  Lym: 76.4%
  MCH: 22.2 pg
  MCHC: 36.4%
  MCV: 60.8 fL
  Mono: 3%
  Neu: 18%
  PT: 12.2 s
  Plat: 126.8 x10_4/uL
  RBC: 620.4 x10_4/ul
  Ret: 7.9%
  WBC: 86 x10_2/uL
  KIDNEY_R: 1 g
  LIVER: 8.6 g
